Results from patent US20230242964A1, “BIODEGRADABLE BIOCHEMICAL SENSOR FOR DETERMINING THE PRESENCE AND/OR THE LEVEL OF PESTICIDES OR ENDOCRINE DISRUPTORS: METHOD AND COMPOSITION” (priority 2018, published 2023).

How the values were obtained:
E. coli EPSP Synthase = E. coli EPSP Synthase (Escherichia coli, UniProt P0A6D3); assay: EPSP synthase network #2B plugged to phosphate detection
From the text: The entry of the network is composed of: the EPSP synthase that uses the phospho-enol pyruvate (PEP) and the 3-phospho Shikimate to produce 5-O-(1-caroxyvinyl)-3-phosphoshikimate and inorganic phosphate.
Then 2 different networks have been tested: • One that converts the inorganic phosphate (Pi): Pi is combined with Inosine in the presence of the purine nucleoside phosphorylase to give Hypoxanthine. The Hypoxantine lead to Xanthine and H2O2 in the presence of Xanthine Oxidase. The Horseradish peroxidase uses the H2O2 to convert the O-dianisidine or the Amplex Red and give a colorimetric or fluorimetric signal detectable.
First, the network has been tested in liquid buffer without vesicle or gel. […] Reaction was followed for 1 hour at 25° C. by registering the absorbance at 450 nm on a spectrophotometer. • One that converts the 5-O-(1-caroxyvinyl)-3-phosphoshikimate produced by the EPSP synthase: 5-O-(1-caroxyvinyl)-3-phosphoshikimate is metabolized by the Chorismate Synthase to give chorismate. This Chorismate is then transformed in pyruvate by the chorismate Lyase. Finaly the pyruvate is used by the Lactate dehydrogenase in the presence of NADH to give lactate and NAD+. The NADH consumption is followed by the change of fluorescence emission at 445 nm (Excitation at 340 nm)—or change of absorbance at 340 nm on a spectrophotometer. • 3.
The reaction was followed by the change of fluorescence on a fluorimeter (Excitation at 530 nm/Emission at 590 nm) or by the change of absorbance at 450 nm on a spectrophotometer. It allowed us to determine the activity of the EPSP synthase toward Phosphoenol Pyruvate (PEP).

BliGO SCF4 mutant = conditions: cited from earlier work
[1] = target: T1, Bacillus subtilis H244K Glycine/Glyphosate oxidase (Bacillus subtilis, UniProt O31616, H244K); assay: Glycine biochemical network #3, Amplex red/HRP fluorescence and colorimetric readout; conditions: glyphosate at 100 μM, Tris buffer 50 mM pH 7,5
T1 construct: purchased Creative enzyme NATE-1674
From the text: It allowed us to detect the glycine.

E. coli EPSP Synthase, sequence (P0A6D3 whole entry): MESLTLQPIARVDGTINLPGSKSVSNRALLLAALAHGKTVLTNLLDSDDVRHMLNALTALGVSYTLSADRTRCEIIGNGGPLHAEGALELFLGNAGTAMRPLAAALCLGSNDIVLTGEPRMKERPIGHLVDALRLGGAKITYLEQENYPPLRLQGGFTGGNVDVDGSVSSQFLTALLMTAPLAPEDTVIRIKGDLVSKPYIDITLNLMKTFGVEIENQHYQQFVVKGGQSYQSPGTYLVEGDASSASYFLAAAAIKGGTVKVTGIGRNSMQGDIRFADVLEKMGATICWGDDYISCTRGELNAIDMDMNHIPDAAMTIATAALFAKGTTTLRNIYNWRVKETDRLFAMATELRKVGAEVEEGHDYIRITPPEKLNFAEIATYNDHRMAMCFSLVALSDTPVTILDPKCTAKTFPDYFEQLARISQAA
T1 sequence (O31616 whole entry H244K): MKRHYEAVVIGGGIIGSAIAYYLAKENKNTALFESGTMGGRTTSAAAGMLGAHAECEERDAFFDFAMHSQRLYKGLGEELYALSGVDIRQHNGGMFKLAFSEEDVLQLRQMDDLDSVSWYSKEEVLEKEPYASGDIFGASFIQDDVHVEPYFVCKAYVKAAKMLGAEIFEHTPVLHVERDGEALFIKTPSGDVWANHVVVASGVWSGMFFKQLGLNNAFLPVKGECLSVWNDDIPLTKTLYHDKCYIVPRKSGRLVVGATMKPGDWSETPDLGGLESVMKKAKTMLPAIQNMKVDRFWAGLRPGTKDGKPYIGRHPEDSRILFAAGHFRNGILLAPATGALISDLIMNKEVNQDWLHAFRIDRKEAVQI

O=C(O)CNCP(=O)(O)O [glyphosate]
effect on the EPSP synthase (E. coli EPSP Synthase; glyphosate 0 to 2 mM, concentration dependent): inhibitory effect | increase of affinity toward glyphosate compared to WT (BliGO SCF4 mutant; BliGO SCF4 mutant vs WT): 8 fold | affinity toward glyphosate (BliGO SCF4 mutant; BliGO SCF4 mutant): 1.58 mM | detection by network #3 [1]: absence of detection

NCC(=O)O [glycine]
decrease of activity to glycine compared to WT (BliGO SCF4 mutant; BliGO SCF4 mutant vs WT): 113 fold

C=C(OP(=O)(O)O)C(=O)O [PEP, phosphoenolpyruvate]
EPSP affinity for PEP (E. coli EPSP Synthase; 50 mM Hepes pH 7, 25° C.): 14 µM | Vmax of EPSP synthase toward PEP (E. coli EPSP Synthase; 50 mM Hepes pH 7, 25° C.): 1.026e-08 mol/L/s
